Like-named read-outs stand apart in the source and are kept apart here.
Legend:
Assay type in all cases: biochemical
panel of kinases = molecular target: T1, panel of kinases (Homo sapiens, UniProt P51813); experiment: Inhibition of a panel of kinases (in vitro HotSpot kinase assay, 33P-ATP, 1 μM ATP), other kinases; conditions: BMX wild-type, read-out: BMX-WT IC50
T1 sequence (P51813 1-675): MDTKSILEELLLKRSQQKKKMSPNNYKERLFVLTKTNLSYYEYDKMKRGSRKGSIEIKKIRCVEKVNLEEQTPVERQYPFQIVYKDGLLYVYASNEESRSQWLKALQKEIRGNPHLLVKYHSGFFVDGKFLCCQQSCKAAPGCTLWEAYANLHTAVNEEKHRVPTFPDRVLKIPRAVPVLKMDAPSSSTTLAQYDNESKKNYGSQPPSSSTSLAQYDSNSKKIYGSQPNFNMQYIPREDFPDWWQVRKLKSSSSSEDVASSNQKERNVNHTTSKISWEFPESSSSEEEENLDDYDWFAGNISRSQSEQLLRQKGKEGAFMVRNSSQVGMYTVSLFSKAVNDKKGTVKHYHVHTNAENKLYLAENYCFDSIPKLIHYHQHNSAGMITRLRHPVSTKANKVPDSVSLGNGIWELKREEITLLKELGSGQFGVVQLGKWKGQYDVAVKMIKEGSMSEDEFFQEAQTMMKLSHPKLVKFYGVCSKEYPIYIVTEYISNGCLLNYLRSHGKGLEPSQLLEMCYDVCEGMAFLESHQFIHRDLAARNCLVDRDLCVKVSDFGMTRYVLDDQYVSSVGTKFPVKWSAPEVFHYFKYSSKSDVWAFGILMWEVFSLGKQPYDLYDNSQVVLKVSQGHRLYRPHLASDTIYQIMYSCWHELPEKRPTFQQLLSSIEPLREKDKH
How it was run: (§1)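 Purified kinase enzymes were incubated with an appropriate substrate and 33P-labelled ATP at 1 μM ATP. Inhibition was measured radiometrically from incorporation of the 33P label.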

TEC = molecular target: T2, TEC (Homo sapiens, UniProt P42680); experiment: Inhibition of a panel of kinases (in vitro HotSpot kinase assay, 33P-ATP, 1 μM ATP); conditions: for IC50: HotSpot kinase assay, 1 μM ATP; for TEC/Btk: ratio of TEC IC50 to Btk IC50 (selectivity)
T2 sequence (P42680 1-631): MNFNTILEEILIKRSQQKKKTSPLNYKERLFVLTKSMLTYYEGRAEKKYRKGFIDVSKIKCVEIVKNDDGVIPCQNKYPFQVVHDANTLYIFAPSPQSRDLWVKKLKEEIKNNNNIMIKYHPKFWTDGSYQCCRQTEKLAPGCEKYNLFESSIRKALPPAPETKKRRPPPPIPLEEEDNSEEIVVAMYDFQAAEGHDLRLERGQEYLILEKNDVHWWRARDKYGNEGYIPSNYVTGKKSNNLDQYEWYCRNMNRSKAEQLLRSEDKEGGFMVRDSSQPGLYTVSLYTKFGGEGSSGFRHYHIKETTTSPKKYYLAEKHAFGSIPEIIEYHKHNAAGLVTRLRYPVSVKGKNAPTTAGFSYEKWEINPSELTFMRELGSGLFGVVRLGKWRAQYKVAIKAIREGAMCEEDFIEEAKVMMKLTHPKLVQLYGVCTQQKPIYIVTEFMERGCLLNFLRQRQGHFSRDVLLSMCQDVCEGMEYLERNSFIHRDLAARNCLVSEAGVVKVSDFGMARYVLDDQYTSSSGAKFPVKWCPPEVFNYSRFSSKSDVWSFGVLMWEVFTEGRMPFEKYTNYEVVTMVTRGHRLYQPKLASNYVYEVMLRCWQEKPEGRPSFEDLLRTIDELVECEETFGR
How it was run: as §1

Btk = molecular target: T3, Btk (Homo sapiens, UniProt Q06187); experiment: Btk in vitro inhibitory activity (one of Method A TR-FRET, Method B electrophoretic mobility shift, Method C radiometric filter binding)
T3 construct: purified from insect cells as a full-length construct containing a N-terminal 6X-His tag; His6 (N); made in house; host or cells: insect cells (Method C)
How it was run: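 Method A: TR-FRET with 0.5 nM Btk at [ATP]=Km, EDTA-quenched, 665/615 nm ratio; Ki(app) converted to IC50. Method B: 1 nM full-length His6 human BTK, 1 μM FAM peptide, pH 7.5, mobility-shift product/sum ratio, 12-point 4-parameter fit. Method C: radiometric filter binding, 8 nM His-tagged BTK, 0.2 mg/mL poly-Glu-Tyr.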

[1] = wild-type Btk, read-out: Btk-WT IC50
[2] = method is one of A, B or C, not stated which, read-out: IC50 values against Btk

T3 sequence (Q06187 whole entry): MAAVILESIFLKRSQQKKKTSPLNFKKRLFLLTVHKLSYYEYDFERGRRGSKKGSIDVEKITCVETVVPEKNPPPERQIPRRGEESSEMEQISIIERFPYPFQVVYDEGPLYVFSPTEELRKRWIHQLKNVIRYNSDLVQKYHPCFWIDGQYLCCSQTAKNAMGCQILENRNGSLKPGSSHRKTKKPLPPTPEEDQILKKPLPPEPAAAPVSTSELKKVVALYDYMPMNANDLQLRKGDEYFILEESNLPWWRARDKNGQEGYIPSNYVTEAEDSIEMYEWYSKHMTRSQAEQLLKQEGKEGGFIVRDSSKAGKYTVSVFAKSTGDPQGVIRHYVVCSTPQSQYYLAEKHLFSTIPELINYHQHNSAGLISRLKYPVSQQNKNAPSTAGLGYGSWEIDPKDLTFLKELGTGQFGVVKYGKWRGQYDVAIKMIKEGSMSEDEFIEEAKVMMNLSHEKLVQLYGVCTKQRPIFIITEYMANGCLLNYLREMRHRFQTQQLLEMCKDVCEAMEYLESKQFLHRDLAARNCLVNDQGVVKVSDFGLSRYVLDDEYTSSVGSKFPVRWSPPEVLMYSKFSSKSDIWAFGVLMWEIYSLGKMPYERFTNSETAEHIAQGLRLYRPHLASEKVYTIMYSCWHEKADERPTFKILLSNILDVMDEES

SMILES | IC50 (panel of kinases) [nM] | IC50 (TEC) [nM] | IC50 (Btk; [1]) [nM] | TEC/Btk (TEC) | IC50 (Btk; [2]) [nM]
CC(C)(C)c1ccc2c(c1)CCN(Cc1ccc(-c3ccnc4[nH]nc(N[C@H]5CC[C@H](O)CC5)c34)cc1F)C2=O [Compound 38, 6-tert-butyl-2-{[2-fluoro-4-(3-{[(11r,4r)-4-hydroxycyclohexyl]amino}-1H-pyrazolo[3,4-b]pyridin-4-yl)phenyl]methyl}-1,2,3,4-tetrahydroisoquinolin-1-one] | > 10000 | > 10000 | > 10000 |  | 
CC(C)(C)c1ncc(C(=O)NCc2ccc(-c3ccnc4[nH]nc(N[C@H]5CC[C@H](O)CC5)c34)cc2F)o1 [Compound 39, 2-tert-butyl-N-{[2-fluoro-4-(3-{[(1r,4r)-4-hydroxycyclohexyl]amino}-1H-pyrazolo[3,4-b]pyridin-4-yl)phenyl]methyl}-1,3-oxazole-5-carboxamide] | 3820 | 4680 | 63.6 | 74 | 
C=CC(=O)N1CC[C@@H](Nc2n[nH]c3nccc(-c4ccc(CNC(=O)c5ccc(C6CC6)cc5)c(F)c4)c23)C1 [Compound 40, 4-cyclopropyl-N-{[2-fluoro-4-(3-{[(3R)-1-(prop-2-enoyl)pyrrolidin-3-yl]amino}-1H-pyrazolo[3,4-b]pyridin-4-yl)phenyl]methyl}benzamide] | 54 | 47 | 1.27 | 37 | 
CC1(C(=O)N2CC[C@@H](Nc3n[nH]c4nccc(-c5ccc(CNC(=O)c6ccc(C7CC7)cc6)c(F)c5)c34)C2)COC1 [Compound 41, 4-cyclopropyl-N-{[2-fluoro-4-(3-{[(3R)-1-(3-methyloxetane-3-carbonyl)pyrrolidin-3-yl]amino}-1H-pyrazolo[3,4-b]pyridin-4-yl)phenyl]methyl}benzamide] | > 10000 | 3010 | 251 | 12 | 
CC(C)(C)c1ccc(C(=O)Nc2ccc(-c3ccnc4[nH]nc(N[C@@H]5CCNC5)c34)cc2F)cc1 [Compound 42, 4-tert-butyl-N-[2-fluoro-4-(3-{[(3R)-pyrrolidin-3-yl]amino}-1H-pyrazolo[3,4-b]pyridin-4-yl)phenyl]benzamide] | > 10000 | > 10000 | > 10000 |  | 
C=CC(=O)N1CC[C@@H](Nc2n[nH]c3nccc(-c4ccc(CN5CCc6cc(C(C)(C)C)ccc6C5=O)c(F)c4)c23)C1 [Compound 43, 6-tert-butyl-2-{[2-fluoro-4-(3-{[(3R)-1-(prop-2-enoyl)pyrrolidin-3-yl]amino}-1H-pyrazolo[3,4-b]pyridin-4-yl)phenyl]methyl}-1,2,3,4-tetrahydroisoquinolin-1-one] | 394 | 599 | 2.76 | 217 | 
C=CC(=O)N1CC[C@H](Nc2n[nH]c3nccc(-c4ccc(CNC(=O)c5ccc(C(C)(C)C)cc5)c(F)c4)c23)C1 [Compound 44, (S)—N-(4-(3-((1-acryloylpyrrolidin-3-yl)amino)-1H-pyrazolo[3,4-b]pyridin-4-yl)-2-fluorobenzyl)-4-(tert-butyl)benzamide] | 5390 | 7940 | 68.2 | 116 | 
C=CC(=O)N1CC[C@@H](Nc2n[nH]c3nccc(-c4ccc(NC(=O)c5ccc(C(C)(C)C)cc5)c(F)c4)c23)C1 [Compound 45] | 449 | 1920 | > 10000 | >100 | 
C=CC(=O)N1CC[C@@H](Nc2n[nH]c3nccc(-c4ccc(CNC(=O)c5cccc(C(C)(C)C)c5)c(F)c4)c23)C1 [Compound 46, (R)—N-(4-(3-((1-acryloylpyrrolidin-3-yl)amino)-1H-pyrazolo[3,4-b]pyridin-4-yl)-2-fluorobenzyl)-3-(tert-butyl)benzamide] | 91 | 182 | 8.55 | 21 | 
C=CC(=O)N1CC[C@@H](Nc2n[nH]c3nccc(-c4ccc(CNC(=O)c5ccc(C(=C)C)cc5)c(F)c4)c23)C1 [Compound 47, (R)—N-(4-(3-((1-acryloylpyrrolidin-3-yl)amino)-1H-pyrazolo[3,4-b]pyridin-4-yl)-2-fluorobenzyl)-4-(prop-1-en-2-yl)benzamide] | 1830 | 2940 | 682 | 4 | 
C=CC(=O)N1CC[C@@H](Nc2n[nH]c3nccc(-c4ccc(CNC(=O)c5ccc(C(F)(F)F)cc5)c(F)c4)c23)C1 [Compound 48, (R)—N-(4-(3-((1-acryloylpyrrolidin-3-yl)amino)-1H-pyrazolo[3,4-b]pyridin-4-yl)-2-fluorobenzyl)-4-(trifluoromethyl)benzamide] | 46 | 65 | 0.798 | 81 | 
C=CC(=O)N1CC[C@@H](Nc2n[nH]c3nccc(-c4ccc(CNC(=O)c5ccc(OC)cc5)c(F)c4)c23)C1 [Compound 49, (R)—N-(4-(3-((1-acryloylpyrrolidin-3-yl)amino)-1H-pyrazolo[3,4-b]pyridin-4-yl)-2-fluorobenzyl)-4-methoxybenzamide] | 89 | 70 | 1.78 | 39 | 
CC(C)(C)c1nc(C(=O)NCc2ccc(-c3ccnc4[nH]nc(N[C@H]5CCNC5)c34)cc2F)no1 [Compound 50, 5-tert-butyl-N-{[2-fluoro-4-(3-{[(3S)-pyrrolidin-3-yl]amino}-1H-pyrazolo[3,4-b]pyridin-4-yl)phenyl]methyl}-1,2,4-oxadiazole-3-carboxamide] | 7440 | 2960 | 3.2 | 925 | 
CC#CC(=O)N1CC[C@@H](Nc2n[nH]c3nccc(-c4ccc(CNC(=O)c5noc(C(C)(C)C)n5)c(F)c4)c23)C1 [Example 24, N-{[4-(3-{[(3R)-1-(but-2-ynoyl)pyrrolidin-3-yl]amino}-1H-pyrazolo[3,4-b]pyridin-4-yl)-2-fluorophenyl]methyl}-5-tert-butyl-1,2,4-oxadiazole-3-carboxamide] | 44 | 22 | 0.139 |  | < 10
CN(C)C/C=C/C(=O)N1CC[C@@H](Nc2n[nH]c3nccc(-c4ccc(CNC(=O)c5noc(C(C)(C)C)n5)c(F)c4)c23)C1 [Example 25, 5-tert-butyl-N-{[4-(3-{[(3R)-1-[(2E)-4-(dimethylamino)but-2-enoyl]pyrrolidin-3-yl]amino}-1H-pyrazolo[3,4-b]pyridin-4-yl)-2-fluorophenyl]methyl}-1,2,4-oxadiazole-3-carboxamide] | 794 | 175 | 0.481 |  | < 10
C=CC(=O)N1CC[C@@H](Nc2n[nH]c3nccc(-c4ccc(CN5CCn6c(cc7c6CC(C)(C)C7)C5=O)c(F)c4)c23)C1 [Example 53] | 310 | 152 | 0.623 | 244 | < 10
C[C@H]1NCCC[C@H]1Nc1n[nH]c2nccc(-c3ccc(CNC(=O)c4noc(C(C)(C)C)n4)c(F)c3)c12 [Example 55] | > 10000 | > 10000 | 29.2 | >100 | 
CC(C)(C)c1cccc(C(=O)NCc2ccc(-c3ccnc4[nH]nc(N[C@@H]5CCNC5)c34)cc2F)c1 [Example 62, 3-tert-butyl-N-{[2-fluoro-4-(3-{[(3R)-pyrrolidin-3-yl]amino}-1H-pyrazolo[3,4-b]pyridin-4-yl)phenyl]methyl}benzamide] | 2140 | 3340 | 861 | 4 | 
